Source: patent US4855086A, “Novel pesticides, preparation and use” (Burroughs Wellcome Co., priority 1982, dated 1989)
Read-outs that look alike come from different tables or passages of the source.

Experiments:
[1] = system: gamma-aminobutyric acid (GABA) release from insect synaptosomes; assay: Release of 3H-labelled GABA from insect synaptosomes (Example H); type: biochemical; conditions: 1 = most potent of five compounds
Description: Interference with gamma-aminobutyric acid (GABA) release from insect synaptosomes is thought to be important in the insecticidal action of the compounds of the invention. Using published procedures (E. G. Gray and V. P. Whittaker, Journal of Anatomy 96, 79-87 (1962); G. Levi, V. Gallo and M. Raiter, Neurochemical Research 5(3), 281-295 (1980)), compounds of Formula I were compared with related compounds outside the scope of the invention.
Arranged in decreasing order of potency (release of ^3 H-labelled GABA), the compounds were: […]

[2] = system: female Musca domestica (WRL strain); assay: Topical application to houseflies with and without piperonyl butoxide pretreatment (Example A); conditions: for mortality at 0.006 mg: Musca domestica, topical, 24 h; for percent knockdown: 6 μg applied, 1 hour
Protocol: Where pretreatment with a synergist was used, the test compound was applied 1 hour after application of the synergist (6 μg piperonyl butoxide (PB) per insect). Knockdown was assessed after 1 hour, and mortality after 24 hours.

[3] = system: Female houseflies (Musca domestica); assay: Potentiation by other unsaturated amides in houseflies (Example G (i)); type: in vivo; conditions: 6 μg PB one hour earlier
Protocol: Female houseflies (Musca domestica) were treated with solutions of compounds of Formula I and a potential synergist both dissolved in butanone, the flies having been treated one hour earlier with 6 μg piperonyl butoxide (PB).
The dose required to prevent flight of half the flies 10 minutes after application of the compound (KD50) was determined and the factor of potentiation (FOP) was calculated by the Equation of the Harmonic Mean for mixtures of the compounds.

[4] = system: Sitophilus granarius; type: in vivo; conditions: 200 (+1000 pb) ppm; 6 days
[5] = system: houseflies; assay: Potentiation by pyrethroids, spray chamber, S-bioallethrin (Example G (ii)); type: in vivo, housefly (Musca domestica); conditions: mixture ratio 45:1
Description: Solutions of the compounds were sprayed into a chamber and houseflies released into the chamber.

[6] = system: female Aedes aegypti; assay: Application to adult mosquitoes with piperonyl butoxide (Example E); type: in vivo; conditions: 2 (4 pb) μg applied
Protocol: Knockdown was assessed after 1 hour and mortality after 24 hours.

[7] = system: B. microplus Susceptible; assay: Larval tick immersion test, susceptible strain (Example F); type: in vivo, Boophilus microplus; conditions: larvae
Description: (§1) Larval ticks were immersed using a published method (Shaw, R. D., Cook, M. and Carson, R. E. (1968). J. Econ. Ent. 61, 1590). Mortality data are presented for B. microplus susceptible and pyrethroid resistant strain (Malchi).

[8] = system: male Blattella germanica; assay: Exposure of cockroaches to deposit on glass with piperonyl butoxide (Example B); type: in vivo; conditions: 700 (+700 pb) mg m^-2
Protocol: Knockdown was assessed after 10 and 60 minutes and mortality after 1 and 6 days.

[9] = system: third instar larvae of Aedes aegypti; assay: Exposure of mosquito larvae to aqueous suspension with piperonyl butoxide (Example D); type: in vivo; conditions: 2.5 (+12.5 pb) ppm; 18 hours
Protocol: Mortality was assessed after 18 hours.

[10] = system: fully engorged female Boophilus microplus, susceptible strain; assay: Cattle tick injection test (Example F (i)); type: in vivo; conditions: 14 days; for No. dead / No. laying viable eggs: 10 ticks
Protocol: The compound was supplied as a […] solution in DMSO:Acetone (1:1). Administration of the compound was by means of a microapplicator which was preset to deliver 0.2 μl of solution. The compound in solution was injected into fully engorged female Boophilus microplus, susceptible strain, at a site just lateral to the mouthparts at the rate of 10 μg/tick. Reducing the concentration reduced the dose delivered. After injection the ticks were maintained at 24° C. and 85% RH for 14 days. At this time the ticks were examined for the presence of viable eggs which gave the percent inhibition of reproduction (% IR). The number of dead ticks was also noted.

[11] = system: B. microplus pyrethroid resistant strain (Malchi); assay: Larval tick immersion test, pyrethroid resistant strain (Example F); type: in vivo, Boophilus microplus; conditions: larvae
Description: as §1

[12] = system: fully engorged female B. microplus susceptible strain; assay: Cattle tick adult immersion test (Example F (ii), (iii)); type: in vivo, Boophilus microplus; conditions: adults, 10 minutes immersion, 14 days
Protocol: The compound was supplied as a 100 mg/liter solution in Esso 200/[…]. Dilution with water gave the required concentrations. Groups of 20 fully engorged female B. microplus susceptible strain were placed in a mesh basket which was immersed in the test dilution for 10 minutes. After immersion the ticks were removed, dried and then fixed to double-sided adhesive tape which was itself affixed to white plastic boards. The boards holding the ticks were held at 24° C. and 85% RH for 14 days. Individual egg masses were scored from 0-4 for quality and quantity and the total score for each group was obtained. The scores were corrected for water control oviposition, plotted on log-probit paper and the % concentration inhibiting 50% and 99% of viable oviposition determined.

[13] = 6 μg PB pretreatment 1 hour before
[14] = read-out: percent mortality, 6 μg applied, 6 μg PB pretreatment 1 hour before, 24 hours
[15] = read-out: percent mortality, 6 μg applied, synergist: none, 24 hours

CC(C)CNC(=O)/C=C/C=C/CC/C=C\C=C\c1ccc2c(c1)OCO2 [reference compound]
rank in decreasing order of potency (release of ^3 H-labelled GABA) [1]: 2

CCCCOCCOCCOCc1cc2c(cc1CCC)OCO2 [PB, piperonyl butoxide, reference compound]
mortality at 0.006 mg [2]: 0%
knockdown ([2]; PB alone, 6 μg per fly): 0%

CC(C)CNC(=O)/C=C/C=C/CC/C=C\C=C\c1cccc(C(F)(F)F)c1 [Example 10, N-isobutyl-11-(3'-trifluoromethylphenyl)-(2E,4E,8Z,10E)-undecatetrenamide]
KD50 (dose required to prevent flight of half the flies 10 minutes after application) [3]: 5.6 μg/fly
rank in decreasing order of potency (release of ^3 H-labelled GABA) [1]: 1

CC(C)CNC(=O)/C=C/CC/C=C\C=C\c1ccccc1 [Example 9, N-isobutyl-9-phenyl-nona-2 (E),6(Z),8(E)-trienamide]
% mortality [4]: 100%
LC50 (concentration for death of half the flies) [5]: 1.8%
% knockdown ([6]; 1 hour): 70%
% mortality ([6]; 24 hours): 80%
LC50 [7]: 0.00044%
% knockdown 10 mins [8]: 7%
% knockdown 60 mins [8]: 7%
% mortality 1 day [8]: 33%
% mortality 6 days [8]: 40%
% mortality [9]: 100%
KD50 (dose required to prevent flight of half the flies 10 minutes after application) [3]: 8.4 μg/fly
No. dead ([10]; 1 μg injected): 0
No. laying viable eggs ([10]; 1 μg injected): 8
% IR (percent inhibition of reproduction) ([10]; 1 μg injected): 20%
No. dead ([10]; 5 μg injected): 1
No. laying viable eggs ([10]; 5 μg injected): 3
% IR (percent inhibition of reproduction) ([10]; 5 μg injected): 70%
No. dead ([10]; 10 μg injected): 3
No. laying viable eggs ([10]; 10 μg injected): 1
% IR (percent inhibition of reproduction) ([10]; 10 μg injected): 90%
mortality at 0.001 mg ([10]; Rhipicephalus microplus, 336 h, 1 μg injected, read-out: % Kill): 0%
mortality at 0.005 mg ([10]; Rhipicephalus microplus, 336 h, 5 μg injected, read-out: % Kill): 10%
mortality at 0.01 mg ([10]; Rhipicephalus microplus, 336 h, 10 μg injected, read-out: % Kill): 30%
LC50 [11]: 0.00022%
IR50 (% concentration inhibiting 50% of viable oviposition) [12]: 0.026%
IR99 (% concentration inhibiting 99% of viable oviposition) [12]: 0.1%
LC50 [12]: 0.1%
rank in decreasing order of potency (release of ^3 H-labelled GABA) [1]: 3
percent knockdown [2, 13]: 100%
percent knockdown ([2]; synergist: none): 95%
mortality at 0.006 mg [2, 14]: 100%
mortality at 0.006 mg [2, 15]: 0%

CC(C)CNC(=O)/C=C/CC/C=C\C=C\c1cccc(C(F)(F)F)c1
rank in decreasing order of potency (release of ^3 H-labelled GABA) [1]: 4

C=CCC1=C(C)[C@@H](OC(=O)[C@@H]2[C@@H](C=C(C)C)C2(C)C)CC1=O [S-bioallethrin, reference compound]
LC50 (concentration for death of half the flies) [5]: 0.05%

CCCCC/C=C/C=C/C(=O)NCC(C)C [N--isobutyl-(2E,4E)-decadienamide, reference compound]
KD50 (dose required to prevent flight of half the flies 10 minutes after application) [3]: 77 μg/fly

CC(C)CNC(=O)/C=C/CC/C=C\C=C\c1ccc2c(c1)OCO2 [reference compound]
rank in decreasing order of potency (release of ^3 H-labelled GABA) [1]: 5

CC(C)CNC(=O)/C=C/CC/C=C\c1ccccc1 [Example 3, N-isobutyl-7-phenylhepta-2E,6Z-dienamide]
% mortality [4]: 100%
% knockdown 10 mins [8]: 13%
% knockdown 60 mins [8]: 20%
% mortality 1 day [8]: 20%
% mortality 6 days [8]: 20%
% mortality [9]: 100%
percent knockdown [2, 13]: 90%
percent knockdown ([2]; synergist: none): 5%
mortality at 0.006 mg [2, 14]: 95%
mortality at 0.006 mg [2, 15]: 2.5%
